Results on one compound are retold here after patent US20250302795A1, “SMALL MOLECULE COMPOUNDS WITH NEGATIVE REGULATORY EFFECTS ON Nrf2 SIGNALING [sequence] AND THEIR POTENTIAL APPLICATIONS” (Beijing Hebabiz Biotechnology Co., Inc., priority 2022, published 2025).

Format in all cases: in vivo, rat
Assay [1] concerns rats with nonalcoholic steatohepatitis induced by a high-fat diet and CCl4. The experiment in a line: Liver histopathology (HE, oil red, Masson staining), high-fat diet and CCl4 model. Conditions: positive control groups and NR218 high-, medium-, low-dose groups. The procedure:
(§1) The normal control group were fed a standard diet while the other groups were exclusively fed a high-fat diet consisting of 88% basal diet +10% lard +2% cholesterol for the initial six weeks. Starting from the seventh week, they received subcutaneous injections of a 30% CCl4 olive oil solution at a dosage of 0.2 ml/100 g behind their back twice per week for a total of four times. Once the model was successfully replicated, the corresponding drugs were administered orally (10 ml/kg) in each treatment group, and both the normal control group and the model group received equal volumes of a 0.5% CMC-Na solution once daily for ten consecutive weeks. Throughout the experimental period, the rats were provided with ad libitum access to food and water, while the animal chamber was maintained under controlled conditions of quietness, natural lighting, a temperature of 25±0.5° C., and a humidity level of 55±5%. The rats' body weights were measured once per week and recorded.
After collecting blood samples from the abdominal aorta of rats, the liver tissue was isolated and fixed in a 10% neutral formalin solution. Following standard procedures for embedding, sectioning, dewaxing, staining, clearing, and sealing, the liver tissues were subjected to HE (hematoxylin-eosin), Masson's trichrome, and oil red staining techniques respectively. […]

The nature of assay [2]: Body weight of rats, high-fat diet + CCl4 non-alcoholic steatohepatitis model. The following applies: positive control group, in g (unit assumed). On the procedure: as §1
The weight changes of rats in each group were compared by conducting weekly weigh-ins after the experiment.

The subject of assay [3] is rats with nonalcoholic steatohepatitis induced by a high-fat diet and CCl4. Put plainly: Liver indices, non-alcoholic steatohepatitis model induced by high-fat diet and CCl4. Conditions: positive control group. On the procedure:
as §1
After blood sampling from the abdominal aorta of rats, the liver tissue was isolated, rinsed with normal saline solution, dried using filter paper, weighed accurately, and subsequently calculated the Liver indices: Liver indices=wet liver weight/body weight×100%.

For the compound `COC(=O)c1cc(OC)c2c(c1-c1c(CO)cc(OC)c3c1OCO3)OCO2` [Bicyclol], the “Oil red O staining of liver tissue (in words)” value in assay [1] was “significantly ameliorated steatosis severity and reduced lipid droplet content”. For the same compound, the body weight in assay [2] (week 1) was found to be 195.81 ± 5.12; in assay [2] (week 2), 252.07 ± 9.62; in assay [2] (week 3), 293.51 ± 34.27; in assay [2] (week 4), 366.45 ± 19.21; in assay [2] (week 5), 404.78 ± 18.71; in assay [2] (week 6), 438.13 ± 24.81. Also, the body weight in assay [2] (week 7) is 471.76 ± 26.05; in assay [2] (week 8), 493.73 ± 28.93; in assay [2] (week 9) it was 500.11 ± 35.71; in assay [2] (week 10) it was 516.75 ± 35.02; in assay [2] (week 11), 483.11 ± 32.67; in assay [2] (week 12), 486.89 ± 36.07. The body weight in assay [2] (week 13) is 508.69 ± 60.33; in assay [2] (week 14), 526.54 ± 51.97; in assay [2] (week 15), 536.32 ± 44.50; in assay [2] (week 16) it was 559.17 ± 38.21; in assay [2] (week 17) it was 573.81 ± 44.40; in assay [2] (week 18), 581.09 ± 46.08. The “Liver Indices” value in assay [3] is recorded as 3.48 ± 0.41 %.
